Test results published in patent publication US20210214734A1, “METHODS FOR SELECTIVELY INHIBITING MOLECULAR CHAPERONE CLIENTS AND COMPOSITIONS FOR USE THEREOF” (Research Foundation for the State University of New York, priority 2020, published 2021).
“Also recorded” adds a separate entry of the source. Where no end group is shown, it is not given here. [ ]: non-standard residue; d: D form. Phe(4-F) = N[C@@H](Cc1ccc(F)cc1)C(=O)O

Tests used:
full length human Hsp90 = assay: 19F NMR R2 filter binding to Hsp90; parameters: 19F NMR signal change in presence of Hsp90 (binding): dose or concentration left out as unconfirmed; settings: for 19F NMR signal change in presence of Hsp90 (binding): 19F R2 filter, peptides tested individually, A01
Procedure: (§1) All the NMR experiments have been recorded at 298° K with a Bruker FT NMR Avance III 600-MHz spectrometer equipped with a 5-mm CryoProbe™ QCI^1H/^19F-^13C/^15N-D quadruple resonance, a shielded z-gradient coil, and the automatic sample handling system such as a SAMPLEJET™ brand sampling system with temperature control.
(§2) ^19F NMR experiments are a well-recognized approach to study the interaction between small molecules or peptides and proteins. […] This is due to the large dynamic range defined as the difference of the NMR measured response in the free and protein-bound states. ^19F R2 filter NMR experiments are among the most sensitive techniques for weak binding detection. See Dalvit et al., Journal of American Chemical Society, 125, 7696-7703 (2003). The transverse relaxation rate R2 is a very sensitive parameter for these studies, due to the large Chemical Shift Anisotropy (CSA) of ^19F nucleus and to the large exchange contribution See Dalvit et al., Journal of American Chemical Society, 125, 7696-7703 (2003); the compounds/peptides that interact with the receptor will show a broadening and intensity reduction in their ^19F NMR signal in presence of the protein
(§3) The 5 mM stock solution peptides were prepared in 100% in DMSOd6. Solubility and purity of the peptides in PBS buffer pH 7.4, 10% D2O (for the lock signal) were checked by ^19F and ^1H NMR spectroscopy. 1D ^19F NMR experiments were recorded with proton decoupling with the Waltz-16 scheme during the acquisition period with an acquisition time of 0.95 s, a relaxation delay of 30 s. whereas 1D version of the NOESY (nuclear Overhauser effect spectroscopy) pulse sequence with H2O signal presaturation, a mixing time of 10 ms and a relaxation delay of 30 s was used for ^1H NMR experiments.
(§4) For the binding studies R2 filter experiments were recorded with the Carr-Purcell-Meibom-Gill scheme with a time interval of 23.5 ms between the 180° pulses with a loop of 2, an acquisition time of 0.95 s a D1 of 5 s and a number of scans of 512. All the ^19F chemical shifts are referenced to the CFCl3 signal in water.

[1] = biological target: Human Serum Albumin (HSA) (Homo sapiens, UniProt P02768); assay: 19F NMR control for non-specific binding to HSA; settings: 40 mM A01, A02 with 10 mM HSA
Procedure: as §1, §2, §3, §4

c-Abl = c-Abl protein level by immunoblot in treated HEK293 cells; format: cell-based, human; settings: 10 μM A01 or A02 with and without TAT, 36 hours
Procedure: (§5) Human embryonic kidney (HEK293) and 786-O cells were acquired from the American Type Culture Collection (ATCC). HEK293 cells were grown in Dulbecco's Modified Eagle Medium (DMEM, Millipore-Sigma) and 786-O cells were grown in Roswell Park Memorial Institute (RPMI-1640, Millipore-Sigma) medium supplemented with 10% fetal bovine serum (FBS, Millipore-Sigma) in a CellQ incubator (Panasonic Healthcare) at 37° C. in 5% CO2.
(§6) Cultured cells were seeded 24 h prior to treatment. […]
(§7) Protein extraction from mammalian cells was carried out using methods previously described. See Woodford et al., Cell Reports, 14, 872-884 (2016). For immunoprecipitation, protein lysates were incubated with Hsp90 antibody for 2 h followed by incubation with protein G agarose (Qiagen) for 2 h at 4° C. Immunopellets were washed 4 times with fresh lysis buffer (20 mM Tris (pH7.4), 100 mM NaCl, 1 mM MgCl2, 0.1% NP40, protease inhibitor cocktail (Roche), and PhosSTOP (Roche)) and eluted with 5× Laemmli buffer. Precipitated proteins were separated by SDS-PAGE and transferred to nitrocellulose membranes. Co-immunoprecipitated proteins were detected by immunoblotting with the indicated antibodies, diluted in 5% non-fat dry milk reconstituted in TBST.

c-Abl-Hsp90 interaction = assay: Hsp90 immunoprecipitation, c-Abl association in HEK293 cells; format: cell-based, human; settings: 10 μM, 36 hours, IP of endogenous Hsp90
Procedure: as §5, §6, §7

c-Src = assay: Immunoblot of unrelated client c-Src in HEK293 cells; format: cell-based, human; settings: 10 μM, 36 hours, selectivity control
Procedure: as §5, §6, §7

Cdk4 = assay: Immunoblot of unrelated client Cdk4 in HEK293 cells; format: cell-based, human; settings: 10 μM, 36 hours, selectivity control
Procedure: as §5, §6, §7

Akt = assay: Immunoblot of unrelated client Akt in HEK293 cells; format: cell-based, human; settings: 10 μM, 36 hours, selectivity control
Procedure: as §5, §6, §7

Aha1-Hsp90 complex = assay: Hsp90 immunoprecipitation, Aha1-Hsp90 complex in HEK293 cells; format: cell-based, human; settings: 10 μM, 36 hours
Procedure: as §5, §6, §7

Hsp90α-FLAG = Hsp90α-FLAG (Homo sapiens, UniProt P07900); assay: Biotinylated peptide streptavidin pulldown of Hsp90α; format: binding; settings: Hsp90α vs Hsp90β; biotinylated peptide pulldown
Procedure: Total cell lysates prepared as described above were incubated with the indicated amounts of biotinylated peptide at 4° C. for 1 h. Streptavidin agarose beads (ThermoScientific) were added and incubated 1 additional hour with gentle rotation. Bound Hsp90 was detected by immunoblotting as described herein.

Cdc37 = biological target: T1, Cdc37 (Homo sapiens, UniProt Q16543); assay: 19F NMR R2 filter binding to Cdc37; parameters: dose or concentration left out as unconfirmed
T1 sequence (Q16543 1-378): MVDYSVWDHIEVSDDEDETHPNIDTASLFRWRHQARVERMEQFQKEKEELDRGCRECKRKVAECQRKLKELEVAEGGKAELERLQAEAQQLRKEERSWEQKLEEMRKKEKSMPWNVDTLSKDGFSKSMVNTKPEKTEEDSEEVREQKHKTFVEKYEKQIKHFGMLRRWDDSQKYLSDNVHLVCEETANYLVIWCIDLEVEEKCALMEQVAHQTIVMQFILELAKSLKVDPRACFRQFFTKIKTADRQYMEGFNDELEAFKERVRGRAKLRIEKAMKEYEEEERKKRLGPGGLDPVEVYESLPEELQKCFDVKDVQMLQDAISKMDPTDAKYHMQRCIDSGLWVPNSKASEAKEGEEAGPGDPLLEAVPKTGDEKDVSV
Procedure: as §1, §2, §3, §4

GR:Hsp90 = assay: GR dissociation from Hsp90 in 786-O cells; format: cell-based
Procedure: as §5
Cultured cells were seeded 24 h prior to treatment. Peptides were added to cells at 50% confluency at the indicated concentrations and incubated for 24 h, followed by protein extraction as described below.
as §7

Aha1 [2] = biological target: Aha1 (Homo sapiens, UniProt O95433); assay: 19F NMR R2 filter binding to Aha1; settings: cAbl peptides at 10 mM
Procedure: as §1
(§8) ^19F NMR experiments are a well-recognized approach to study the interaction between small molecules or peptides and proteins. […] This is due to the large dynamic range defined as the difference of the NMR measured response in the free and protein-bound states. ^19F R2 filter NMR experiments are among the most sensitive techniques for weak binding detection. […]
(§9) The 5 mM stock solution peptides were prepared in 100% in DMSOd6. […] 1D ^19F NMR experiments were recorded with proton decoupling with the Waltz-16 scheme during the acquisition period with an acquisition time of 0.95 s, a relaxation delay of 30 s. whereas 1D version of the NOESY (nuclear Overhauser effect spectroscopy) pulse sequence with H2O signal presaturation, a mixing time of 10 ms and a relaxation delay of 30 s was used for ^1H NMR experiments.
(§10) For the binding studies R2 filter experiments were recorded with the Carr-Purcell-Meibom-Gill scheme with a time interval of 23.5 ms between the 180° pulses with a loop of 2, an acquisition time of 0.95 s a D1 of 5 s and a number of scans of 512. […]

[3] = tested on: Hsp90 chaperone complexes (Hsp90, Cdc37, Aha1); assay: 19F NMR binding to proteins of the Hsp90 chaperone system, single and mixed peptides
Procedure: as §1, §8, §9, §10

Human Serum Albumin = biological target: T2, Human Serum Albumin (human, UniProt P02768 25-609); assay: 19F NMR
T2 construct: also called HSA

Aha1 [4] = biological target: T3, Aha1 (UniProt O95433 1-338, limits assumed); assay: 19F NMR R2 filter
T3 construct: Protein used in the 19F NMR experiments
T3 sequence (O95433 whole entry): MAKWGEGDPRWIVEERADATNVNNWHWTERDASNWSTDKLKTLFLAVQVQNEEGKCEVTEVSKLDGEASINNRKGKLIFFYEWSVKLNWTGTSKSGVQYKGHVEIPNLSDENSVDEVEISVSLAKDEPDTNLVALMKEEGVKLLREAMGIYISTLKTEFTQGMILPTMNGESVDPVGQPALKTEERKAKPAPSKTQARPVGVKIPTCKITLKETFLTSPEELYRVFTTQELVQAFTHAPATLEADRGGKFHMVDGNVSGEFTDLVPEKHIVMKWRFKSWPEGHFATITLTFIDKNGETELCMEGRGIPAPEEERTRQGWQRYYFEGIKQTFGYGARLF

Aha1 (Homo sapiens, UniProt O95433), sequence (O95433 whole entry, species assumed): as the sequence (O95433 whole entry) above

“F(F)GGSPYPGIDLSQVYELLEK ([Phe(4-F)]GGSPYPGIDLSQVYELLEK) [A02]” was tested, and the “binding to Hsp90 when A01 and A02 are mixed” value (full length human Hsp90; 19F NMR, peptides mixed) was “continue to bind to Hsp90 even when they are mixed”, the “19F NMR signal change in presence of Hsp90 (binding)” value (from here on “19F NMR signal change in presence”) (full length human Hsp90) was “decrease in the presence of Hsp90, indicating peptide-protein binding” and the “binding interaction with HSA by 19F NMR” value [1] was “neither A01 nor A02 showed binding interaction with HSA”. The “binding interaction with HSA by 19F NMR” value ([1]; listed as AblO2) was “do not interact with HSA”, the c-Abl protein levels (c-Abl) was “decrease of c-Abl protein levels” and the “dissociation of c-Abl from Hsp90” value (c-Abl-Hsp90 interaction) was “dissociation of c-Abl from Hsp90”. The “c-Src stability or activity” value (c-Src) was “neither the related kinase c-Src nor the client kinases Cdk4 or Akt showed a defect in stability or activity”, the “Cdk4 stability or activity” value (Cdk4) was “neither the related kinase c-Src nor the client kinases Cdk4 or Akt showed a defect in stability or activity” and the “Akt stability or activity” value (Akt) was “neither the related kinase c-Src nor the client kinases Cdk4 or Akt showed a defect in stability or activity”. The Aha1-Hsp90 complex formation (Aha1-Hsp90 complex) was “decreased Aha1-Hsp90 complex formation” and the Hsp90 isoform specificity (Hsp90α-FLAG) was “neither peptide demonstrates isoform specificity”.

In the case of “FGTVYKGKWGGGGF(F)STKPQLAGGGNVTAPTPQ (FGTVYKGKWGGGG[Phe(4-F)]STKPQLAGGGNVTAPTPQ) [B-Raf-02]”, the “19F NMR signal change in presence” value (full length human Hsp90) is reported as “no or very weak interaction”, the “binding to Cdc37 by 19F NMR” value (Cdc37) is reported as “bound to Cdc37” and the “binding interaction with HSA by 19F NMR” value [1] is reported as “no interactions were detected”. For the same molecule, the “binding interaction with HSA by 19F NMR” value ([1]; listed as Braf02-pep) was “do not interact with HSA”.

In the case of “GYSTKPQLAGGGNVTAPTPQGF(F)QHSGS (GYSTKPQLAGGGNVTAPTPQG[Phe(4-F)]QHSGS) [B-Raf-01]”, the “19F NMR signal change in presence” value (full length human Hsp90) is reported as “no or very weak interaction”, the “binding interaction with HSA by 19F NMR” value [1] is reported as “no interactions were detected” and the “binding interaction with HSA by 19F NMR” value ([1]; listed as Braf01-pep) is reported as “do not interact with HSA”.

“TLPCGGTWRIMTGIE F(F)PEMLA (TLPCGGTWRIMTGIE[Phe(4-F)]PEMLA) [GR-01, glucocorticoid receptor mimic peptide]” was tested, and the “GR dissociation from Hsp90” value (GR:Hsp90) was “showed GR dissociation from Hsp90”.

With “YAGYDSSVPDSTWRIMTTLNMGGF(F)PEMLA (YAGYDSSVPDSTWRIMTTLNMGG[Phe(4-F)]PEMLA) [GR-02, glucocorticoid receptor mimic peptide]” the “19F NMR signal change in presence” value (full length human Hsp90) was “bound to all of the tested proteins”, the “binding to Cdc37 by 19F NMR” value (Cdc37) was “highest effect on Cdc37; also recorded: binding effect is higher on CDC37” and the “binding to Aha1 by 19F NMR” value (Aha1 [2]) was “bound to all of the tested proteins”. For the same molecule, the “binding to members of the Hsp90 chaperone complex by 19F NMR” value ([3]; Hsp90, Cdc37, Aha1) was “binds to all the protein”, the “competition among peptides when mixed (19F NMR signal variation vs single peptide)” value ([3]; peptides mixed together and added to protein solution) was “No significant difference” and the “GR dissociation from Hsp90” value (GR:Hsp90) was “showed GR dissociation from Hsp90”.

LGGGQ[Phe(4-F)]GEVYGGVAVKTLGGGEFLDEAAVMK (also called peptide A01; Abl01) [A01]: no binding (tested: 40 mM A01 with 10 mM HSA) (Human Serum Albumin); no binding (tested: 10 mM of each cAbl peptide) (Aha1 [4]).

GYSTKPQLAGGGNVTAPTPQG[Phe(4-F)]QHSGS (also called Braf01-pep) [B-Raf-01]: no binding (Human Serum Albumin).

[Phe(4-F)]GGSPYPGIDLSQVYELLEK (also called peptide A02; Abl02) [A02]: no binding (tested: 40 mM A02 with 10 mM HSA) (Human Serum Albumin).

FGTVYKGKWGGGG[Phe(4-F)]STKPQLAGGGNVTAPTPQ (also called Braf02-pep) [B-Raf-02]: no binding (Human Serum Albumin).
